Among the data in PubChem BioAssay (NCI) are TGI and GI50 values, retold here.

Where “and” joins values, the source holds several entries; their conditions need not be identical. Identical values can stand only once.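 48-hour exposure; five concentrations; linearly interpolated endpoints. GI50 is the concentration that inhibits growth by half. TGI denotes the concentration required for complete inhibition of growth.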

The first experiment concerns PC-3 prostate. The experiment is described as follows: DTP human tumour cell line panel, 48 h.
For `CC(C)(N=NC(C)(C)C(=O)NCCO)C(=O)NCCO`, the TGI was above 100 µM.

`CCOc1cc(NC(C)=O)ccc1C(=O)NNC(=O)c1ccccc1OC(C)=O` came in with a TGI above 100 µM.

Compound `Cc1nnc2n1N=C(c1cc(F)c(Cl)cc1Cl)/C(=C/c1ccc(Cl)cc1)S2` displayed a TGI of 80.6 µM.

For the compound `CC(O[Si](c1ccccc1)(c1ccccc1)C(C)(C)C)[C@H](NC(=O)OC(C)(C)C)C(=O)O[Si](c1ccccc1)(c1ccccc1)C(C)(C)C` (some centres not stated), the TGI was determined as 20.5 µM.

As to `COc1cc(/C=C2/C(=O)N(C(=O)c3ccccc3O)N=C2C)cc(OC)c1OC`, the TGI was above 100 µM.

`CCCCCCCCCCCCCCCCCCNc1ccn(C2OC(COP(=O)(O)OCC3OC(n4ccc(NC(=O)CCCCCCCCCCCCCCCCC)nc4=O)C(OC(C)=O)C3OC(C)=O)C(OC(C)=O)C2OC(C)=O)c(=O)n1` (configuration not stated) displayed a TGI above 100 µM.

For `COc1cccc(-c2cc(=O)c3ccccc3o2)c1N`, the TGI is above 100 µM.

In turn, `Cc1nc2c(sc(=S)n2-c2ccccc2)c2nc3ncccc3n12` gave a TGI above 100 µM.

`Cc1c(-c2nc3ccccc3[nH]2)c(=O)n(-c2ccccc2)n1C` registered a TGI above 100 µM.

Regarding `Cc1nnc(Nc2ccccc2)o1`, the TGI was above 100 µM.

Compound `COc1cc(O)c(/C=N/N=C(\N)NO)c(OC)c1` came in with a TGI above 10 µM.

Regarding `CCCCN1C(=O)CC2[C@@H]3CCc4cc(OC(C)=O)ccc4C3CC[C@]2(C)C1=O` (some centres not stated), the TGI was above 10 µM.

A further experiment relates to SNB-19 CNS. The experiment in a line: DTP human tumour cell line panel, 48 h.
Consider `NC(=O)N/N=C(\Cc1nc2ccc(Cl)cc2[nH]c1=O)C(=O)Nc1ccc(Cl)cc1Cl`, for which the TGI was above 100 µM.

The compound `O=c1nc(N2CCN(c3ccccc3)CC2)ccn1C1OC(CO)C(O)C1O` (configuration not stated) displayed a TGI above 100 µM.

Take `OCCCCCNc1c2ccccc2nc2ccccc12`: the TGI came to 10.8 µM.

In turn, `CCOP(=O)(OCC)/C(C#N)=C/c1cnc(-c2ccccc2)[nH]1` returned a TGI above 100 µM.

`CC(=O)OCC1OC(OC(C)(C)CC/C=C(\C)[C@@H]2C/C=C(\C)CC/C=C(\C)CC2)C(O)C(O)C1OC(C)=O` (some centres not stated): the GI50 was 61.5 µM and 12.5 µM; the TGI is > 100 µM and 25 µM.

As to `CN(C)CCCOC(=O)C(c1ccccc1)C1(O)CCSCC1` (configuration not stated), the TGI amounted to 78.6 µM. This counts as double-digit micromolar.

Regarding `COCOC1/C=C/CCCCC2=C(C)C=C(C1)O2` (configuration not stated), the total growth inhibition concentration (TGI) was above 100 µM.

Regarding `O=C(O)c1cc2c(cc1CC(Cc1ccc3c(c1)CCC3)C(=O)O)CCC2` (configuration not stated), the TGI was above 100 µM.

Compound `C[C@@]12[C@H]3CC[C@@H]1[C@H](O)C(=O)N2CC3` came in with a total growth inhibition concentration (TGI) above 100 µM.

In turn, `O=C1CCC[C@@H]2NC[C@@H](c3ccc4c(c3)OCO4)[C@H]12` yielded a TGI above 25 µM.

Compound `Cc1ccc([C@@H]2[C@@H](C(=O)c3ccccn3)[C@H](c3ccc(C)cc3)C[C@](O)(c3ccccn3)[C@H]2C(=O)c2ccccn2)cc1` had a TGI above 64.3 µM.

The compound `O=C1C(Cl)=C(N2CCN(C3=C(Cl)C(=O)c4ccccc4C3=O)CC2)C(=O)c2ccccc21` displayed a TGI of 28.7 µM.

`CC(C)(N=NC(C)(C)C(=O)NCCO)C(=O)NCCO` displayed a TGI above 100 µM.

`CCOc1cc(NC(C)=O)ccc1C(=O)NNC(=O)c1ccccc1OC(C)=O` displayed a TGI above 100 µM.

Turning to `Cc1nnc2n1N=C(c1cc(F)c(Cl)cc1Cl)/C(=C/c1ccc(Cl)cc1)S2`, the TGI was above 100 µM.

`CC(O[Si](c1ccccc1)(c1ccccc1)C(C)(C)C)[C@H](NC(=O)OC(C)(C)C)C(=O)O[Si](c1ccccc1)(c1ccccc1)C(C)(C)C` (some centres not stated) registered a TGI of 29.8 µM.

In turn, `COc1cc(/C=C2/C(=O)N(C(=O)c3ccccc3O)N=C2C)cc(OC)c1OC` registered a TGI above 100 µM.

`CCCCCCCCCCCCCCCCCCNc1ccn(C2OC(COP(=O)(O)OCC3OC(n4ccc(NC(=O)CCCCCCCCCCCCCCCCC)nc4=O)C(OC(C)=O)C3OC(C)=O)C(OC(C)=O)C2OC(C)=O)c(=O)n1` (configuration not stated) had a TGI above 100 µM.

Compound `COc1cccc(-c2cc(=O)c3ccccc3o2)c1N` displayed a TGI above 100 µM.

In the case of `Cc1nc2c(sc(=S)n2-c2ccccc2)c2nc3ncccc3n12`, the TGI was above 100 µM.

Turning to `Cc1c(-c2nc3ccccc3[nH]2)c(=O)n(-c2ccccc2)n1C`, the TGI was above 100 µM.

Compound `Cc1nnc(Nc2ccccc2)o1` displayed a TGI above 100 µM.

`COc1cc(O)c(/C=N/N=C(\N)NO)c(OC)c1`: the TGI was above 10 µM.

As for `CCCCN1C(=O)CC2[C@@H]3CCc4cc(OC(C)=O)ccc4C3CC[C@]2(C)C1=O` (some centres not stated), the TGI was above 10 µM.

In a further experiment the test system is UACC-257 melanoma. The experiment is described as follows: DTP human tumour cell line panel, 48 h.
In the case of `NC(=O)N/N=C(\Cc1nc2ccc(Cl)cc2[nH]c1=O)C(=O)Nc1ccc(Cl)cc1Cl`, the TGI is above 100 µM.

The compound `O=c1nc(N2CCN(c3ccccc3)CC2)ccn1C1OC(CO)C(O)C1O` (configuration not stated) gave a TGI above 100 µM.

Compound `OCCCCCNc1c2ccccc2nc2ccccc12` returned a TGI of 4.77 µM. This lies in the single-digit micromolar range.

As to `CCOP(=O)(OCC)/C(C#N)=C/c1cnc(-c2ccccc2)[nH]1`, the TGI is above 100 µM.

On to `CC(=O)OCC1OC(OC(C)(C)CC/C=C(\C)[C@@H]2C/C=C(\C)CC/C=C(\C)CC2)C(O)C(O)C1OC(C)=O` (some centres not stated), for which the GI50 was 99.3 µM and 19.1 µM; the total growth inhibition concentration (TGI) is > 100 µM and 38.5 µM.

The compound `CN(C)CCCOC(=O)C(c1ccccc1)C1(O)CCSCC1` (configuration not stated) registered a TGI above 100 µM.

`COCOC1/C=C/CCCCC2=C(C)C=C(C1)O2` (configuration not stated) returned a TGI above 100 µM.

In turn, `O=C(O)c1cc2c(cc1CC(Cc1ccc3c(c1)CCC3)C(=O)O)CCC2` (configuration not stated) registered a TGI above 100 µM.

On to `C[C@@]12[C@H]3CC[C@@H]1[C@H](O)C(=O)N2CC3`, for which the TGI was above 100 µM.

As to `O=C1CCC[C@@H]2NC[C@@H](c3ccc4c(c3)OCO4)[C@H]12`, the TGI was above 25 µM.

As for `Cc1ccc([C@@H]2[C@@H](C(=O)c3ccccn3)[C@H](c3ccc(C)cc3)C[C@](O)(c3ccccn3)[C@H]2C(=O)c2ccccn2)cc1`, the TGI was above 100 µM.

`O=C1C(Cl)=C(N2CCN(C3=C(Cl)C(=O)c4ccccc4C3=O)CC2)C(=O)c2ccccc21` showed a TGI of 2.78 µM.

For `CC(C)(N=NC(C)(C)C(=O)NCCO)C(=O)NCCO`, the concentration for total growth inhibition (TGI) was above 100 µM.

In turn, `CCOc1cc(NC(C)=O)ccc1C(=O)NNC(=O)c1ccccc1OC(C)=O` yielded a TGI of 52.5 µM.

The compound `Cc1nnc2n1N=C(c1cc(F)c(Cl)cc1Cl)/C(=C/c1ccc(Cl)cc1)S2` gave a total growth inhibition concentration (TGI) of 44.6 µM.

For `CC(O[Si](c1ccccc1)(c1ccccc1)C(C)(C)C)[C@H](NC(=O)OC(C)(C)C)C(=O)O[Si](c1ccccc1)(c1ccccc1)C(C)(C)C` (some centres not stated), the TGI was found to be 28.8 µM.

`COc1cc(/C=C2/C(=O)N(C(=O)c3ccccc3O)N=C2C)cc(OC)c1OC`: the TGI is above 100 µM.

As to `CCCCCCCCCCCCCCCCCCNc1ccn(C2OC(COP(=O)(O)OCC3OC(n4ccc(NC(=O)CCCCCCCCCCCCCCCCC)nc4=O)C(OC(C)=O)C3OC(C)=O)C(OC(C)=O)C2OC(C)=O)c(=O)n1` (configuration not stated), the TGI is above 100 µM.

On to `COc1cccc(-c2cc(=O)c3ccccc3o2)c1N`, for which the TGI was above 100 µM.

For the compound `Cc1nc2c(sc(=S)n2-c2ccccc2)c2nc3ncccc3n12`, the concentration for total growth inhibition (TGI) was above 100 µM.

With `Cc1c(-c2nc3ccccc3[nH]2)c(=O)n(-c2ccccc2)n1C`, the concentration for total growth inhibition (TGI) was above 100 µM.

Compound `Cc1nnc(Nc2ccccc2)o1` came in with a TGI above 100 µM.

Take `COc1cc(O)c(/C=N/N=C(\N)NO)c(OC)c1`: the TGI was above 10 µM.

With `CCCCN1C(=O)CC2[C@@H]3CCc4cc(OC(C)=O)ccc4C3CC[C@]2(C)C1=O` (some centres not stated), the TGI was above 10 µM.

A word on the TGI: it is the concentration at which net growth stops. A low value points to more potent growth arrest. As a reminder, the GI50 is the concentration that inhibits growth by half.
